Results from patent US11866450B2, “Modulators of Cystic Fibrosis Transmembrane Conductance regulator, pharmaceutical compositions, methods of treatment, and process for making the modulators” (priority 2018, dated 2024).
Read-outs that look alike come from different tables or passages of the source.

What was measured:
[1] = biological target: CFTR-mediated chloride transport (Homo sapiens, UniProt P13569); type: cell-based; conditions: enteroid cells incubated with test compound 18-24 hours, acute 10 μM forskolin and 300 nM Compound III; for Max. Activity: % of chloride transport with 3 μM Compound A, 3 μM Compound II and 300 nM acute Compound III triple combination control
Chain of CFTR-mediated chloride transport (P13569 whole entry, looked up): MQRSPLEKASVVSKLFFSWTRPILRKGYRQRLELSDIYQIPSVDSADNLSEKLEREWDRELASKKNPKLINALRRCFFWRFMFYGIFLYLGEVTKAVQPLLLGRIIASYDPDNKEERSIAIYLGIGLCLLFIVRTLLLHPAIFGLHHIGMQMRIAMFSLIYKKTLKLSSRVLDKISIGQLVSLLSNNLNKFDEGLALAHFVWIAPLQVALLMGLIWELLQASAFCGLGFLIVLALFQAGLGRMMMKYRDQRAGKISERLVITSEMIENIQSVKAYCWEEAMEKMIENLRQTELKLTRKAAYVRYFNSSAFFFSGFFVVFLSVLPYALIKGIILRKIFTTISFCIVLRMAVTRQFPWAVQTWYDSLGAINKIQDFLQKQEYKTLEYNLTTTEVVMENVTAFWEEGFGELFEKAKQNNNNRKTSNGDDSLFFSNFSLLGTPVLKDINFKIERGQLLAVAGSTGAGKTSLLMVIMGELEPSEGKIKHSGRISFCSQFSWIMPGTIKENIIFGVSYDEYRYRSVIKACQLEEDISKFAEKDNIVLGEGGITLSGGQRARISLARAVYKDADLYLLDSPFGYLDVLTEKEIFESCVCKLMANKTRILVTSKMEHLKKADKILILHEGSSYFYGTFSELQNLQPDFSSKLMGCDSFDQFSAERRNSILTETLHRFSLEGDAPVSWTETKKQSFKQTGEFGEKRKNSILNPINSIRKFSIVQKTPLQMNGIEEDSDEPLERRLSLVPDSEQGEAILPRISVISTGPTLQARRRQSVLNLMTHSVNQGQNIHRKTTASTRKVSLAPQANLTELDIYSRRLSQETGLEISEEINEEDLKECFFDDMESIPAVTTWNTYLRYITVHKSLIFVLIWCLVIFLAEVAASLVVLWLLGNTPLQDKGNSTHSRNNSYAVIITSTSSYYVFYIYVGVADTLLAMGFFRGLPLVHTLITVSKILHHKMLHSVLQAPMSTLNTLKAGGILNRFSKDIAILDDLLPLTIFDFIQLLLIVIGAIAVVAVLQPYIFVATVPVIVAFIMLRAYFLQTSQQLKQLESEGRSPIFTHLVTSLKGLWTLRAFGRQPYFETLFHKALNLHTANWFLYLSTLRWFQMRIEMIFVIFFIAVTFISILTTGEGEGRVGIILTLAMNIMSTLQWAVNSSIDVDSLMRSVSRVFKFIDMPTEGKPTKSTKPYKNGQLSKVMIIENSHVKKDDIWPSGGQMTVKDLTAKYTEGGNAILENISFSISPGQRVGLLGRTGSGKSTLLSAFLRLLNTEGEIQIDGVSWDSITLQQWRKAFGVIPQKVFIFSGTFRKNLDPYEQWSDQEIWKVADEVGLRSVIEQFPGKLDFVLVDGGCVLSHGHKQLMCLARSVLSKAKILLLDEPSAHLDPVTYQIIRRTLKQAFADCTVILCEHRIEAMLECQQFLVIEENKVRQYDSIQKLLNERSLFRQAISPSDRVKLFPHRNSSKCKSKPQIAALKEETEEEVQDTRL
Summary of the method: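 Membrane-potential fluorescence AUC over 15 min quantified CFTR chloride transport after acute forskolin (10 μM), IBMX (100 μM) and Compound III (300 nM) in chloride-free buffer. Human enteroid cells were pretreated with compound for 18–24 h; % Activity is relative to 3 μM Compound A + 3 μM Compound II + 300 nM Compound III.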

[2] = snar bond

Row | Compound | EC50 [1] | Max. Activity [1] | other results
1 | [2H]C([2H])(COc1ccn(-c2ccc3c(n2)N2C[C@@H](CCCNc4cccc(n4)S(=O)(=O)NC3=O)CC2(C)C)n1)C1C2(CC2)C12CC2 [Compound 252, (14S)-8-[3-(2-{dispiro[2.0.2.1]heptan-7-yl}-2,2-dideuterio-ethoxy)-1H-pyrazol-1-yl]-12,12-dimethyl-2λ^6-thia-3,9,11,18,23-pentaazatetracyclo[17.3.1.111,14.05,10]tetracosa-1(22),5,7,9,19(23),20-hexaene-2,2,4-trione] | < 1000 nM | +++ (+++ is >60%) | ring closure, isolated yield ([2]; from 2-chloro-6-[3-(2,2-dideuterio-2-dispiro[2.0.2.1]heptan-7-yl-ethoxy)pyrazol-1-yl]-N-[[3-[(3S)-5,5-dimethylpyrrolidin-3-yl]propylamino]-2-pyridyl]sulfonyl]pyridine-3-carboxamide (trifluoroacetate salt), 15-membered ring, K2CO3, NMP, 21.6 mM, 150.0 °C): 85%
2 | CC1(C)CC2CCCOc3cccc(n3)S(=O)(=O)NC(=O)c3ccc(-n4ccc(OCCC5(C(F)(F)F)CC5)n4)nc3N1C2 (racemic) [Compound 40, 12,12-dimethyl-8-(3-{2-[1-(trifluoromethyl)cyclopropyl]ethoxy}-1H-pyrazol-1-yl)-18-oxa-2λ^6-thia-3,9,11,23-tetraazatetracyclo[17.3.1.111,14.05,10]tetracosa-1(22),5,7,9,19(23),20-hexaene-2,2,4-trione] | < 1000 nM | ++ (++ is 30-60%) | ring closure, isolated yield ([2]; from CC1(C)CC(CCCOc2cccc(S(=O)(=O)NC(=O)c3ccc(-n4ccc(OCCC5(C(F)(F)F)CC5)n4)nc3Cl)n2)CN1, 15-membered ring, K2CO3/CsF/3A MS, DMSO, 37.3 mM, 150.0 °C, 8.0 h): 48%
3 | CC1(C)CC2CCCNc3cccc(n3)S(=O)(=O)NC(=O)c3ccc(-n4ccc(OCC5(C(F)(F)F)CC5)n4)nc3N1C2 (racemic) [Compound 15, 12,12-dimethyl-8-(3-{[1-(trifluoromethyl)cyclopropyl]methoxy}-1H-pyrazol-1-yl)-2λ^6-thia-3,9,11,18,23-pentaazatetracyclo[17.3.1.111,14.05,10]tetracosa-1(23),5(10),6,8,19,21-hexaene-2,2,4-trione] | < 1000 nM | +++ (+++ is >60%) | ring closure, isolated yield ([2]; from CC1(C)CC(CCCNc2cccc(S(=O)(=O)NC(=O)c3ccc(-n4ccc(OCC5(C(F)(F)F)CC5)n4)nc3Cl)n2)CN1, 15-membered ring, K2CO3/CsF/3A MS, DMSO, 43.8 mM, 150.0 °C, 16.0 h, 2 steps): 54%
4 | [2H]C([2H])(CCOc1ccn(-c2ccc3c(n2)N2C[C@@H](CCCNc4cccc(n4)S(=O)(=O)NC3=O)CC2(C)C)n1)C1(C(F)(F)F)CC1 [Compound 269, (14S)-12,12-Dimethyl-8-(3-{3-[1-(trifluoromethyl)cyclopropyl]-3,3-dideuterio-propoxy}-1H-pyrazol-1-yl)-2λ^6-thia-3,9,11,18,23-pentaazatetracyclo[17.3.1.111,14.05,10]tetracosa-1(22),5(10),6,8,19(23),20-hexaene-2,2,4-trione] | < 1000 nM | +++ (+++ is >60%) | ring closure, isolated yield ([2]; from [2H]C([2H])(CCOc1ccn(-c2ccc(C(=O)NS(=O)(=O)c3cccc(NCCC[C@@H]4CN(C(=O)OC(C)(C)C)C(C)(C)C4)n3)c(Cl)n2)n1)C1(C(F)(F)F)CC1, 15-membered ring, TFA/DCM, then K2CO3/3A MS, DMSO, 30.5 mM, 150.0 °C, 2 steps): 24%
5 | CC1(C)CC2CCCCCc3ccc(nc3)S(=O)(=O)NC(=O)c3ccc(-n4ccc(OCCC5(C(F)(F)F)CC5)n4)nc3N1C2 (stereo not drawn) [Compound 143, 12,12-dimethyl-8-(3-{2-[1-(trifluoromethyl)cyclopropyl]ethoxy}-1H-pyrazol-1-yl)-2λ^6-thia-3,9,11,22-tetraazatetracyclo[18.2.2.111,14.05,10]pentacosa-1(23),5,7,9,20(24),21-hexaene-2,2,4-trione] | 1000 to 3000 nM | + (+ is <30%) | ring closure, isolated yield ([2]; from CC1(C)CC(CCCCCc2ccc(S(=O)(=O)NC(=O)c3ccc(-n4ccc(OCCC5(C(F)(F)F)CC5)n4)nc3Cl)nc2)CN1, 17-membered ring, K2CO3/CsF, DMSO, 45.1 mM, 165.0 °C, 17.0 h): 11%
6 | [2H]C([2H])([2H])C1(C([2H])([2H])[2H])C[C@@H]2CCCNc3cccc(n3)S(=O)(=O)NC(=O)c3ccc(-n4ccc(OCCC5C6(CC6)C56CC6)n4)nc3N1C2 [Compound 274, (14S)-8-[3-(2-{Dispiro[2.0.2.1]heptan-7-yl}ethoxy)-1H-pyrazol-1-yl]-12,12-di(trideuterio)methyl-2λ^6-thia-3,9,11,18,23-pentaazatetracyclo[17.3.1.111,14.05,10]tetracosa-1(23),5,7,9,19,21-hexaene-2,2,4-trione] | < 1000 nM | +++ (+++ is >60%) | ring closure, isolated yield ([2]; from [2H]C([2H])([2H])C1(C([2H])([2H])[2H])C[C@H](CCCNc2cccc(S(=O)(=O)NC(=O)c3ccc(-n4ccc(OCCC5C6(CC6)C56CC6)n4)nc3Cl)n2)CN1, 15-membered ring, K2CO3, NMP, 53.5 mM, 150.0 °C): 47%
7 | CC1(C)CC2CCCn3cc(cn3)S(=O)(=O)NC(=O)c3ccc(-n4ccc(OCCC5(C(F)(F)F)CC5)n4)nc3N1C2 (stereo not drawn) [Compound 110, 20,20-Dimethyl-4-(3-{2-[1-(trifluoromethyl)cyclopropyl]ethoxy}-1H-pyrazol-1-yl)-10λ^6-thia-1,3,9,13,14-pentaazatetracyclo[16.2.1.111,14.02,7]docosa-2,4,6,11(22),12-pentaene-8,10,10-trione] | < 1000 nM | ++ (++ is 30-60%) | ring closure, isolated yield ([2]; from CC(C)(C)OC(=O)N1CC(CCCn2cc(S(=O)(=O)NC(=O)c3ccc(-n4ccc(OCCC5(C(F)(F)F)CC5)n4)nc3Cl)cn2)CC1(C)C, 14-membered ring, HCl (Boc off), K2CO3/CsF/3A MS, DMSO, 44.8 mM, 155.0 °C, 2 steps): 36%
8 | CC1(C)CC2CCCCOc3ccc(cc3)S(=O)(=O)NC(=O)c3ccc(-n4ccc(OCCC5(C(F)(F)F)CC5)n4)nc3N1C2 (racemic) [Compound 89, 12,12-dimethyl-8-(3-{2-[1-(trifluoromethyl)cyclopropyl]ethoxy}-1H-pyrazol-1-yl)-19-oxa-2λ^6-thia-3,9,11-triazatetracyclo[18.2.2.111,14.05,10]pentacosa-1(22),5,7,9,20,23-hexaene-2,2,4-trione] | < 1000 nM | ++ (++ is 30-60%) | ring closure, isolated yield ([2]; from CC1(C)CC(CCCCOc2ccc(S(=O)(=O)NC(=O)c3ccc(-n4ccc(OCCC5(C(F)(F)F)CC5)n4)nc3Cl)cc2)CN1, 17-membered ring, K2CO3/CsF/3A MS, DMSO, 36.5 mM, 165.0 °C, 18.0 h): 21%
9 | CC1(C)CC2CCCCc3cccc(c3)S(=O)(=O)NC(=O)c3ccc(-n4ccc(OCCC5(C(F)(F)F)CC5)n4)nc3N1C2 (stereo not drawn) [Compound 53, 12,12-dimethyl-8-(3-{2-[1-(trifluoromethyl)cyclopropyl]ethoxy}-1H-pyrazol-1-yl)-2λ^6-thia-3,9,11-triazatetracyclo[17.3.1.111,14.05,10]tetracosa-1(22),5,7,9,19(23),20-hexaene-2,2,4-trione] | < 1000 nM | +++ (+++ is >60%) | ring closure, isolated yield ([2]; from CC1(C)CC(CCCCc2cccc(S(=O)(=O)NC(=O)c3ccc(-n4ccc(OCCC5(C(F)(F)F)CC5)n4)nc3Cl)c2)CN1, 15-membered ring, K2CO3/CsF/3A MS, DMSO, 32.0 mM, 165.0 °C, 6.0 h): 51%
10 | CN1CCCC2CCC(C)(C)N2c2nc(-n3ccc(OCCC4(C(F)(F)F)CC4)n3)ccc2C(=O)NS(=O)(=O)c2cccc1n2 (racemic) [Compound 9, 12,12,19-trimethyl-8-(3-{2-[1-(trifluoromethyl)cyclopropyl]ethoxy}-1H-pyrazol-1-yl)-2λ^6-thia-3,9,11,19,24-pentaazatetracyclo[18.3.1.05,10.011,15]tetracosa-1(23),5,7,9,20(24),21-hexaene-2,2,4-trione] | < 1000 nM | ++ (++ is 30-60%) | ring closure, isolated yield ([2]; from CN(CCCC1CCC(C)(C)N1)c1cccc(S(=O)(=O)NC(=O)c2ccc(-n3ccc(OCCC4(C(F)(F)F)CC4)n3)nc2Cl)n1, 14-membered ring, K2CO3/CsF/3A MS, DMSO, 72.3 mM, 150.0 °C, 25.0 h): 78%
11 | CC1(C)CCC2CCCNc3cccc(n3)S(=O)(=O)NC(=O)c3ccc(-n4ccc(OCCC5(C(F)(F)F)CC5)n4)nc3N21 (stereo not drawn) [Compound 16, 12,12-dimethyl-8-(3-{2-[1-(trifluoromethyl)cyclopropyl]ethoxy}-1H-pyrazol-1-yl)-2λ^6-thia-3,9,11,19,24-pentaazatetracyclo[18.3.1.05,10.011,15]tetracosa-1(23),5,7,9,20(24),21-hexaene-2,2,4-trione] | < 1000 nM | ++ (++ is 30-60%) | ring closure, isolated yield ([2]; from CC1(C)CCC(CCCNc2cccc(S(=O)(=O)NC(=O)c3ccc(-n4ccc(OCCC5(C(F)(F)F)CC5)n4)nc3Cl)n2)N1, 14-membered ring, K2CO3/CsF, DMSO, 84.1 mM, 150.0 °C): 58%
12 | CC1(C)C[C@@H]2CCCn3ccc(n3)S(=O)(=O)NC(=O)c3ccc(-n4ccc(OCCC5C6(CC6)C56CC6)n4)nc3N1C2 [Compound 187, (18S)-4-[3-(2-{Dispiro[2.0.2.1]heptan-7-yl}ethoxy)-1H-pyrazol-1-yl]-20,20-dimethyl-10λ^6-thia-1,3,9,14,22-pentaazatetracyclo[16.2.1.111,14.02,7]docosa-2,4,6,11(22),12-pentaene-8,10,10-trione] | < 1000 nM | +++ (+++ is >60%) | ring closure, isolated yield ([2]; from CC1(C)C[C@H](CCCn2ccc(S(=O)(=O)NC(=O)c3ccc(-n4ccc(OCCC5C6(CC6)C56CC6)n4)nc3Cl)n2)CN1, 14-membered ring, K2CO3/CsF/3A MS, DMSO, 26.2 mM, 155.0 °C, 18.0 h): 72%
